Data published in patent US20200297760A1, “COMPOSITIONS AND METHODS FOR REDUCING IMMUNE RESPONSES AGAINST CHIMERIC ANTIGEN RECEPTORS” (Juno Therapeutics, Inc., priority 2015, published 2020).

System: PBMCs of subjects treated with CD19-specific CAR T cells
Test: ELISpot assay for specific immune response to individual CAR peptides
Format: cell-based, human
Details: PBMCs of patients with detected CAR-specific immune response after CD19 CAR T cell infusion
Experimental: Individual ELISpot assays were performed using an anti-cytokine capture antibody to assess the presence or absence of a specific immune response for each of these individual hits (see Berger et al. (2006); Berger et al. (2001); Riddell et al. (1996); and Berger et al. (2005), supra). Specific immune responses against peptides with sequences within the VH portion of the scFv of the CAR were detected in both patients assessed (including regions within the FR1, CDR1, and FR2 regions for one patient and within the FR3 for the other). […] These two overlapping 15-mer peptides had the amino acid sequences […] (SEQ ID NO: 8) and […] (SEQ ID NO: 9, also set forth in SEQ ID NO:165), respectively. In another study following administration with a different CAR having a murine scFv, CD28 transmembrane and costimulatory domains and a CD3 zeta domain, using similar methods, an immune response also was detected for one subject against a pool containing VH portions of an anti-CD19 scFv and for another subject in a pool containing junction portions.

FWVKRGRKKLLYIFK
specific immune response against peptide (ELISpot): specific immune responses also were detected

AFIIFWVKRGRKKLL
specific immune response against peptide (ELISpot): specific immune responses also were detected
